According to ChEMBL document CHEMBL3508693 (2016):

Legend:
[1] = % aliskiren recovered as metabolite M6 in faeces following 10 day repeated oral administration of [14C] aliskiren hemifumarate at 100 mg.Kg-1 level studied in rat; type: ADME, organism-based, Albino HAN:WIST, Feces; conditions: in vivo, 240 h
[2] = % aliskiren recovered as M6 from M4 in bile following single intravenous administration of 10 mg.Kg-1 [14C] aliskiren hemifumarate in male rat; type: ADME, organism-based, HAN:WIST(SPF); conditions: in vivo
[3] = % of radioactivity recovered as M6 from M4 in faeces following oral administration of [14C] aliskiren hemifumarate at 100 mg.Kg-1 level in rat; type: ADME, organism-based, Albino HAN:WIST, Feces; conditions: in vivo
[4] = % of radioactivity recovered as M6 from M4 in plasma following oral administration of [14C] aliskiren hemifumarate at 100 mg.Kg-1 level in rat; type: ADME, organism-based, Albino HAN:WIST; conditions: in vivo
[5] = % aliskiren recovered as M6 from M4 in hydrolysed following single intravenous administration of 10 mg.Kg-1 [14C] aliskiren hemifumarate in male rat; type: ADME, organism-based, HAN:WIST(SPF), Bile; conditions: in vivo
[6] = % aliskiren hemifumarate recovered as M6 from M4 in urine and faeces following single oral dose of 300 mg [14C]SPP100 studied in healthy men; type: ADME, organism-based, Urine/Feces; conditions: human, in vivo, at 300 mg
[7] = % of radioactivity recovered as M6 from M4 in faeces following intravenous administration of [14C] aliskiren hemifumarate at 10 mg.Kg-1 level in rat; type: ADME, organism-based, Albino HAN:WIST, Feces; conditions: in vivo
[8] = % aliskiren hemifumarate recovered as M6 from M4 in faeces following single oral dose of 300 mg [14C]SPP100 studied in healthy men; type: ADME, organism-based, Feces; conditions: human, in vivo
[9] = % aliskiren recovered as metabolite M6 in plasma following 10 day repeated oral administration of [14C] aliskiren hemifumarate at 100 mg.Kg-1 level studied in rat; type: ADME, organism-based, Albino HAN:WIST; conditions: in vivo, 240 h
[10] = % aliskiren recovered as M6 from M4 of receiver rat following duodenal infusion of radioactivity through bile from donor rat treated with single intravenous administration of 10 mg.Kg-1 [14C] aliskiren hemifumarate; type: ADME, organism-based, HAN:WIST(SPF); conditions: in vivo
[11] = % of radioactivity recovered as M6 from M4 in urine following oral administration of [14C] aliskiren hemifumarate at 100 mg.Kg-1 level in rat; type: ADME, organism-based, Albino HAN:WIST; conditions: in vivo
[12] = % of radioactivity recovered as M6 from M4 in plasma following intravenous administration of [14C] aliskiren hemifumarate at 10 mg.Kg-1 level in rat; type: ADME, organism-based, Albino HAN:WIST; conditions: in vivo
[13] = % aliskiren recovered as metabolite M6 in urine following 10 day repeated oral administration of [14C] aliskiren hemifumarate at 100 mg.Kg-1 level studied in rat; type: ADME, organism-based, Albino HAN:WIST; conditions: in vivo, 240 h
[14] = % aliskiren hemifumarate recovered as M6 from M4 in urine following single oral dose of 300 mg [14C]SPP100 studied in healthy men; type: ADME, organism-based; conditions: human, in vivo, at 300 mg
[15] = % aliskiren recovered as M6 from M4 in urine following single intravenous administration of 10 mg.Kg-1 [14C] aliskiren hemifumarate in male rat; type: ADME, organism-based, HAN:WIST(SPF); conditions: in vivo
[16] = % of radioactivity recovered as M6 from M4 in urine following intravenous administration of [14C] aliskiren hemifumarate at 10 mg.Kg-1 level in rat; type: ADME, organism-based, Albino HAN:WIST; conditions: in vivo
[17] = % of radioactivity recovered as M5 from M1 in plasma following oral administration of [14C] aliskiren hemifumarate at 100 mg.Kg-1 level in rat; type: ADME, organism-based, Albino HAN:WIST; conditions: in vivo
[18] = % aliskiren recovered as M5 from M1 in hydrolysed following single intravenous administration of 10 mg.Kg-1 [14C] aliskiren hemifumarate in male rat; type: ADME, organism-based, HAN:WIST(SPF), Bile; conditions: in vivo
[19] = % aliskiren recovered as M5 from M1 in bile following single intravenous administration of 10 mg.Kg-1 [14C] aliskiren hemifumarate in male rat; type: ADME, organism-based, HAN:WIST(SPF); conditions: in vivo
[20] = % of radioactivity recovered as M5 from M1 in faeces following intravenous administration of [14C] aliskiren hemifumarate at 10 mg.Kg-1 level in rat; type: ADME, organism-based, Albino HAN:WIST, Feces; conditions: in vivo
[21] = % aliskiren recovered as M5 from M1 of receiver rat following duodenal infusion of radioactivity through bile from donor rat treated with single intravenous administration of 10 mg.Kg-1 [14C] aliskiren hemifumarate; type: ADME, organism-based, HAN:WIST(SPF); conditions: in vivo
[22] = % of radioactivity recovered as M5 from M1 in faeces following oral administration of [14C] aliskiren hemifumarate at 100 mg.Kg-1 level in rat; type: ADME, organism-based, Albino HAN:WIST, Feces; conditions: in vivo
[23] = % of radioactivity recovered as M5 from M1 in urine following oral administration of [14C] aliskiren hemifumarate at 100 mg.Kg-1 level in rat; type: ADME, organism-based, Albino HAN:WIST; conditions: in vivo
[24] = % aliskiren recovered as M5 from M1 in urine following single intravenous administration of 10 mg.Kg-1 [14C] aliskiren hemifumarate in male rat; type: ADME, organism-based, HAN:WIST(SPF); conditions: in vivo
[25] = % of radioactivity recovered as M5 from M1 in urine following intravenous administration of [14C] aliskiren hemifumarate at 10 mg.Kg-1 level in rat; type: ADME, organism-based, Albino HAN:WIST; conditions: in vivo
[26] = % of radioactivity recovered as M5 from M1 in plasma following intravenous administration of [14C] aliskiren hemifumarate at 10 mg.Kg-1 level in rat; type: ADME, organism-based, Albino HAN:WIST; conditions: in vivo

For COc1ccc(C[C@@H](C[C@H](N)[C@@H](O)C[C@H](C(=O)NCC(C)(C)C(N)=O)C(C)C)C(C)C)cc1O[C@@H]1O[C@H](CO)[C@@H](O)[C@H](O)[C@H]1O, the Compound recovery [1] was “OUTCOME = Observed, VALUE = Minor amounts”, the Compound recovery [2] was 5% and the Compound recovery [3] was “OUTCOME = Not detected or not investigated”. For the same molecule, the Compound recovery [4] was > 2%, the Compound recovery [5] was “OUTCOME = Not detected” and the Compound recovery [6] was < 0.1%. The Compound recovery [7] was “OUTCOME = Not detected or not investigated”, the Compound recovery [8] was “OUTCOME = Not detected” and the Compound recovery [9] was “OUTCOME = Observed, VALUE = Minor amounts”. For the same molecule, the Compound recovery [10] was 8.9%, the Compound recovery [11] was “<= 2%” and the Compound recovery [12] was “<= 2%”. For the same molecule, the Compound recovery [13] was “OUTCOME = Observed, VALUE = Minor amounts”, the Compound recovery [14] was < 0.1% and the Compound recovery [15] was 3.2%. For the same molecule, the Compound recovery [16] was “OUTCOME = Not detected or not investigated”.

For COCCCOc1cc(C[C@@H](C[C@H](N)[C@@H](O)C[C@H](C(=O)NCC(C)(C)C(N)=O)C(C)C)C(C)C)ccc1O[C@@H]1O[C@H](CO)[C@@H](O)[C@H](O)[C@H]1O, the Compound recovery [17] was > 2%, the Compound recovery [18] was “OUTCOME = Not detected” and the Compound recovery [19] was 5%. For the same molecule, the Compound recovery [20] was “OUTCOME = Not detected or not investigated”, the Compound recovery [21] was 8.9% and the Compound recovery [22] was “OUTCOME = Not detected or not investigated”. The Compound recovery [23] was “<= 2%”, the Compound recovery [24] was 3.2% and the Compound recovery [25] was “OUTCOME = Not detected or not investigated”. For the same molecule, the Compound recovery [26] was “<= 2%”.
